Laboratory results taken from the CheMixHub viscosity set.
Values joined by “and” are separate entries in the source; they are usually repeats but may differ in a detail not shown here. Equal values may be shown once.

Assay: xn = mol fraction of the nth substance listed

O=C([O-])[O-].[Na+].[Na+] + [2H]O[2H]
viscosity [mPa·s], 101 kPa
Details | x1 = 0.009 | x1 = 0.018 | x1 = 0.031 | x1 = 0.041
298.15 K | 1.4 | 1.847 | 2.881 | 4.233
308.15 K | 1.094 | 1.443 | 2.174 | 3.115
318.15 K | 0.895 | 1.167 | 1.725 | 2.435

CCC(C)=O + c1ccccc1
Details | viscosity [mPa·s]
293.15 K, 101 kPa, x1 = 0.2 | 0.569
293.15 K, 101 kPa, x1 = 0.4 | 0.511
293.15 K, 101 kPa, x1 = 0.5 | 0.487
293.15 K, 101 kPa, x1 = 0.6 | 0.471
293.15 K, 101 kPa, x1 = 0.8 | 0.435
298 K, 101.33 kPa, x2 = 0.1513 | 0.3919
298 K, 101.33 kPa, x2 = 0.2663 | 0.4141
298 K, 101.33 kPa, x2 = 0.2941 | 0.4175
298 K, 101.33 kPa, x2 = 0.4321 | 0.4408
298 K, 101.33 kPa, x2 = 0.5597 | 0.4674
298 K, 101.33 kPa, x2 = 0.6057 | 0.4775
298 K, 101.33 kPa, x2 = 0.7302 | 0.5097
298 K, 101.33 kPa, x2 = 0.8777 | 0.5571
298.15 K, 101 kPa, x2 = 0.106 | 0.4072
298.15 K, 101 kPa, x2 = 0.197 | 0.4173
298.15 K, 101 kPa, x2 = 0.3 | 0.4324
298.15 K, 101 kPa, x2 = 0.4 | 0.4487
298.15 K, 101 kPa, x2 = 0.5 | 0.4672
298.15 K, 101 kPa, x2 = 0.615 | 0.4908
298.15 K, 101 kPa, x2 = 0.694 | 0.508
298.15 K, 101 kPa, x2 = 0.793 | 0.5355
298.15 K, 101 kPa, x2 = 0.895 | 0.5683
299.15 K, 101.3 kPa, x2 = 0.098 | 0.41
299.15 K, 101.3 kPa, x2 = 0.198 | 0.425
299.15 K, 101.3 kPa, x2 = 0.298 | 0.443
299.15 K, 101.3 kPa, x2 = 0.398 | 0.455
299.15 K, 101.3 kPa, x2 = 0.498 | 0.474
299.15 K, 101.3 kPa, x2 = 0.599 | 0.497
299.15 K, 101.3 kPa, x2 = 0.699 | 0.519
299.15 K, 101.3 kPa, x2 = 0.799 | 0.546
299.15 K, 101.3 kPa, x2 = 0.899 | 0.584
303.15 K, 101 kPa, x1 = 0.1023 | 0.538
303.15 K, 101 kPa, x1 = 0.2 | 0.498
303.15 K, 101 kPa, x1 = 0.2042 | 0.509
303.15 K, 101 kPa, x1 = 0.395 | 0.467
303.15 K, 101 kPa, x1 = 0.4 | 0.454
303.15 K, 101 kPa, x1 = 0.5 | 0.434
303.15 K, 101 kPa, x1 = 0.5129 | 0.444
303.15 K, 101 kPa, x1 = 0.6 | 0.42
303.15 K, 101 kPa, x1 = 0.6822 | 0.42
303.15 K, 101 kPa, x1 = 0.8 | 0.391
303.15 K, 101 kPa, x1 = 0.853 | 0.396
307.35 K, 101.33 kPa, x1 = 0.0925 | 0.501
307.35 K, 101.33 kPa, x1 = 0.2405 | 0.462
307.35 K, 101.33 kPa, x1 = 0.3178 | 0.446
307.35 K, 101.33 kPa, x1 = 0.4477 | 0.424
307.35 K, 101.33 kPa, x1 = 0.5084 | 0.41
307.35 K, 101.33 kPa, x1 = 0.616 | 0.394
307.35 K, 101.33 kPa, x1 = 0.7356 | 0.378
308.15 K, 101 kPa, x1 = 0.2 | 0.471
308.15 K, 101 kPa, x1 = 0.4 | 0.431
308.15 K, 101 kPa, x1 = 0.5 | 0.414
308.15 K, 101 kPa, x1 = 0.6 | 0.401
308.15 K, 101 kPa, x1 = 0.8 | 0.373
318.15 K, 101 kPa, x1 = 0.2 | 0.421
318.15 K, 101 kPa, x1 = 0.4 | 0.388
318.15 K, 101 kPa, x1 = 0.5 | 0.373
318.15 K, 101 kPa, x1 = 0.6 | 0.362
318.15 K, 101 kPa, x1 = 0.8 | 0.339

COC(C)=O + c1ccccc1
101 kPa
Details | viscosity [mPa·s]
293.15 K, x1 = 0.5 | 0.48
298.15 K, x1 = 0.0436 | 0.587
298.15 K, x1 = 0.1504 | 0.55
298.15 K, x1 = 0.2504 | 0.52
298.15 K, x1 = 0.3483 | 0.494
298.15 K, x1 = 0.441 | 0.472
298.15 K, x1 = 0.4878 | 0.462
298.15 K, x1 = 0.5512 | 0.449
298.15 K, x1 = 0.6492 | 0.431
298.15 K, x1 = 0.7483 | 0.415
298.15 K, x1 = 0.8514 | 0.401
298.15 K, x1 = 0.9486 | 0.389
298.15 K, x2 = 0.1115 | 0.363
298.15 K, x2 = 0.1916 | 0.374
298.15 K, x2 = 0.293 | 0.388
298.15 K, x2 = 0.3964 | 0.407
298.15 K, x2 = 0.4965 | 0.429
298.15 K, x2 = 0.6017 | 0.454
298.15 K, x2 = 0.6991 | 0.482
298.15 K, x2 = 0.7955 | 0.512
298.15 K, x2 = 0.8946 | 0.548
303.15 K, x1 = 0.5 | 0.428
308.15 K, x1 = 0.0436 | 0.513
308.15 K, x1 = 0.1504 | 0.485
308.15 K, x1 = 0.2504 | 0.461
308.15 K, x1 = 0.3483 | 0.441
308.15 K, x1 = 0.441 | 0.423
308.15 K, x1 = 0.4878 | 0.415
308.15 K, x1 = 0.5 | 0.406
308.15 K, x1 = 0.5512 | 0.405
308.15 K, x1 = 0.6492 | 0.39
308.15 K, x1 = 0.7483 | 0.377
308.15 K, x1 = 0.8514 | 0.365
308.15 K, x1 = 0.9486 | 0.356
313.15 K, x2 = 0.1115 | 0.321
313.15 K, x2 = 0.1916 | 0.33
313.15 K, x2 = 0.293 | 0.339
313.15 K, x2 = 0.3964 | 0.354
313.15 K, x2 = 0.4965 | 0.37
313.15 K, x2 = 0.6017 | 0.388
313.15 K, x2 = 0.6991 | 0.407
313.15 K, x2 = 0.7955 | 0.429
313.15 K, x2 = 0.8946 | 0.455

COCCOC + c1ccccc1
298.15 K, 101 kPa
Details | viscosity [mPa·s]
x1 = 0.0878 | 0.571
x1 = 0.1781 | 0.545
x1 = 0.2708 | 0.524
x1 = 0.3662 | 0.504
x1 = 0.4643 | 0.484
x1 = 0.5652 | 0.467
x1 = 0.6691 | 0.45
x1 = 0.7761 | 0.435
x1 = 0.8864 | 0.42

O=C(O)c1ccccc1 + c1ccccc1
viscosity
Details | 303.15 K | 308.15 K | 313.15 K | 318.15 K
101 kPa, x1 = 0.0581 | 0.6414 mPa·s | 0.5991 mPa·s | 0.5625 mPa·s | 0.5267 mPa·s
101 kPa, x1 = 0.105 | – | 0.6626 mPa·s | 0.622 mPa·s | 0.5832 mPa·s
101.33 kPa, x1 = 0.0581 | 0.6414 mPa·s | 0.5991 mPa·s | 0.5625 mPa·s | 0.5267 mPa·s
101.33 kPa, x1 = 0.05813 | – | 0.5991 mPa·s | – | 0.5267 mPa·s
101.33 kPa, x1 = 0.06979 | – | 0.616 mPa·s | – | 0.5401 mPa·s
101.33 kPa, x1 = 0.08477 | – | 0.6421 mPa·s | – | 0.56 mPa·s
101.33 kPa, x1 = 0.105 | – | 0.6626 mPa·s and 0.6626 mPa·s | 0.622 mPa·s | 0.5832 mPa·s and 0.5832 mPa·s
101.33 kPa, x1 = 0.1232 | – | – | – | 0.61 mPa·s
